Where two headings read alike, the source gives them in different places.
Legend:
[1] = test system: T1, IRE1 (endogenous, KMS-11); experiment: cells; design: XBP1s mRNA by branched DNA assay in KMS-11 cell lysates after compound treatment; conditions: Homo sapiens, KMS-11, 4 h
T1 construct: endogenous full-length in KMS-11 cells
Procedure: 15-20k KMS-11 cells in RPMI growth media were seeded into 96-well plates and treated with compounds or DMSO control over a period of 4 h the following day. RNA levels of XBP1s and DGAT2 in KMS-11 cell lysates were measured using the QuantiGene 2.0 bDNA assay technology (Thermofisher). See Supplementary Table 4 for sequences of relevant capture probes. Data analysis was carried out against an assay background control with no cell lysate (no-RNA control). In the case of AMG-18, cells were also stimulated with thapsigargin (Tg, 100 nM) 30 min after compound addition. No Tg was used when treating cells with all other compounds. Samples were run in duplicate. To investigate whether this peculiar conformation had any role in the mechanism of activation of G-1749, we evaluated different tails to substitute the ethyl carbamate on the naphthyl moiety (Fig. 3, Supplementary Table 2). […] This is likely due to clashes with residues lining the front pocket, which in turn would force the tails to occupy the back pocket and break the salt bridge, thereby causing RNase inhibition. […] Experiments in KMS-11 cells (Fig. 3b, c, right panels) confirmed the effect of these tail modifications on IRE1 RNase activation. […] The chemical substituents tolerated by the front pocket seem to be very limited: even a minor substitution of the carbamate oxygen atom to a larger [compound left out], from ethyl carbamate to propyl amide (compound 6), or from methyl carbamate to methyl or ethyl amide (compound 4 or 5, respectively), or increasing the tail length by one atom, from ethyl to propyl carbamate (compound 11), is enough to impart a switch from activation to inhibition (Fig. 3b, c). […] RNA cleavage was measured by a kinetic fluorescence assay using an XBP1-like RNA hairpin substrate and IRE1 LKR construct (Q470-L977). Background from the no-protein control was subtracted from signal before calculating fold change. Source data are provided as a Source Data file. Data are presented as the mean for measurements from two independent experiments (n = 2). c RNA levels for IRE1 RNase product XBP1s measured by bDNA assay of lysates from KMS-11 cells treated with compounds for 4 h. Background from the no-RNA control was subtracted from signal before calculating fold change. Source data are provided as a Source Data file. Data are presented as the mean for measurements from two independent experiments (n = 2). d, e Analytical Ultracentrifugation sedimentation velocity (SV-AUC) experiments for (d), IRE1 LKR (Q470-L977) unphosphorylated and autophosphorylated and (e), IRE1 LKR unphosphorylated in the presence of slight excess G-9807 and G-1749. Calculated sedimentation coefficients for IRE1 monomer (3.1 svedbergs) and dimer (4.6 svedbergs) are highlighted by dotted lines. Source data are provided as a Source Data file.

[2] = biological target: Inositol-Requiring Enzyme 1 (IRE1) (Homo sapiens, UniProt O75460); experiment: biochemical; design: gene ERN1; IRE1 cytoplasmic kinase-RNase construct; kinetic fluorescence RNA cleavage (FAM/BHQ XBP1 stem-loop) by IRE1 LKR Q470-L977
Procedure: A 5′-Carboxyfluorescein (FAM)-and 3′-Black Hole Quencher (BHQ)-labeled single stem-loop mini-substrate containing XBP1 sequence (sequence reported in Supplementary Table 4) was used as substrate for cleavage by IRE1 LKR (Q470-L977) or IRE1 KR (G547-L977) in 20 mM HEPES pH 7.5, 50 mM potassium acetate, 1 mM magnesium acetate, 1 mM dithiothreitol, 0.05% v/v TritonX-100. Concentrations were as follows: 8 nM IRE1 LKR and 200 nM RNA substrate; 22 nM IRE1 KR-0P and 200 nM RNA substrate; 2 nM IRE1 KR 3P and 500 nM RNA substrate. RNA cleavage was measured kinetically over an hour at room temperature as an increase in fluorescence. The final reaction was carried out in 20 µL in 384-well plates. Samples were run in duplicate. To investigate whether this peculiar conformation had any role in the mechanism of activation of G-1749, we evaluated different tails to substitute the ethyl carbamate on the naphthyl moiety (Fig. 3, Supplementary Table 2). […] This is likely due to clashes with residues lining the front pocket, which in turn would force the tails to occupy the back pocket and break the salt bridge, thereby causing RNase inhibition. […] Experiments in KMS-11 cells (Fig. 3b, c, right panels) confirmed the effect of these tail modifications on IRE1 RNase activation. […] The chemical substituents tolerated by the front pocket seem to be very limited: even a minor substitution of the carbamate oxygen atom to a larger [compound left out], from ethyl carbamate to propyl amide (compound 6), or from methyl carbamate to methyl or ethyl amide (compound 4 or 5, respectively), or increasing the tail length by one atom, from ethyl to propyl carbamate (compound 11), is enough to impart a switch from activation to inhibition (Fig. 3b, c). […] RNA cleavage was measured by a kinetic fluorescence assay using an XBP1-like RNA hairpin substrate and IRE1 LKR construct (Q470-L977). Background from the no-protein control was subtracted from signal before calculating fold change. Source data are provided as a Source Data file. Data are presented as the mean for measurements from two independent experiments (n = 2). c RNA levels for IRE1 RNase product XBP1s measured by bDNA assay of lysates from KMS-11 cells treated with compounds for 4 h. Background from the no-RNA control was subtracted from signal before calculating fold change. Source data are provided as a Source Data file. Data are presented as the mean for measurements from two independent experiments (n = 2). d, e Analytical Ultracentrifugation sedimentation velocity (SV-AUC) experiments for (d), IRE1 LKR (Q470-L977) unphosphorylated and autophosphorylated and (e), IRE1 LKR unphosphorylated in the presence of slight excess G-9807 and G-1749. Calculated sedimentation coefficients for IRE1 monomer (3.1 svedbergs) and dimer (4.6 svedbergs) are highlighted by dotted lines. Source data are provided as a Source Data file.

[3] = biological target: IRE1 LKR (Q470-L977), autophosphorylated (human) (UniProt O75460); experiment: AUC; sedimentation velocity; IRE1 LKR at 3.3, 10 and 30 µM without compound; 25 mM HEPES pH 7.5, 250 mM NaCl, 1 mM TCEP; 20 °C, 45,000 rpm, A280; fit to a monomer-dimer equilibrium model (Sedanal); monomer to dimer
[4] = biological target: IRE1 LKR (Q470-L977), unphosphorylated (human) (UniProt O75460); experiment: AUC; sedimentation velocity; unphosphorylated IRE1 LKR at 3.3, 10 and 30 µM with a slight (ca. 15% molar) excess of G-9807 (4, 12, 35 µM); 25 mM HEPES pH 7.5, 250 mM NaCl, 1 mM TCEP; 20 °C; fit to a monomer-dimer equilibrium model; monomer to dimer
[5] = XBP1s mRNA increase, read-out: EC50 (KMS-11 bDNA assay, XBP1s), activators
[6] = RNase activation, read-out: EC50 (RNase biochemical assay), activators
[7] = XBP1s mRNA decrease, read-out: EC50 (KMS-11 bDNA assay, XBP1s), inhibitors
[8] = RNase inhibition, read-out: EC50 (RNase biochemical assay), inhibitors
[9] = RNase inhibition, inhibitor, read-out: EC50 (RNase biochemical assay), inhibitors

Inositol-Requiring Enzyme 1 (IRE1), sequence (O75460 547-977): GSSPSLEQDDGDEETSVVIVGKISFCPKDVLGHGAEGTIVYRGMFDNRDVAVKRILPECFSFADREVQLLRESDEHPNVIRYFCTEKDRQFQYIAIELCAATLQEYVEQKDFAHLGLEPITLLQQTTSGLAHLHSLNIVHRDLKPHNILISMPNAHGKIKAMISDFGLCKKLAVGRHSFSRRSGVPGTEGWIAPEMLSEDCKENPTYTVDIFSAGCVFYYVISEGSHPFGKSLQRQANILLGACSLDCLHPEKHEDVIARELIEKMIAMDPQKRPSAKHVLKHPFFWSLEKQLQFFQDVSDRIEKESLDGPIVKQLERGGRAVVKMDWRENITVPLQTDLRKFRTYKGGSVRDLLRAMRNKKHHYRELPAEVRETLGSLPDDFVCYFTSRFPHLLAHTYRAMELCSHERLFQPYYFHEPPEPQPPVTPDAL

Compound	EC50 [1, 7] [nM]	EC50 [2, 9] [nM]	also measured
C/C=C/C(=O)Nc1cccc2c(Oc3ncccc3-c3ccnc(N[C@H]4CCCNC4)n3)c(C)ccc12 [compound 1]			EC50 [1, 5]: 331 ± 128 nM; EC50 [2, 6]: 7 ± 1 nM
COC(=O)Nc1cccc2c(Oc3ncccc3-c3ccnc(N[C@H]4CCCNC4)n3)c(C)ccc12 [compound 2]			EC50 [1, 5]: 3370 ± 709 nM; EC50 [2, 6]: 4 ± 4 nM
Cc1ccc2c(N)cccc2c1Oc1ncccc1-c1ccnc(N[C@H]2CCCNC2)n1 [compound 3, 3]			EC50 [1, 5]: 3260 ± 480 nM; EC50 ([2]; RNase activation, activator, read-out: EC50 (RNase biochemical assay), activators): 31 ± 23 nM
CC(=O)Nc1cccc2c(Oc3ncccc3-c3ccnc(N[C@H]4CCCNC4)n3)c(C)ccc12 [compound 4]	649 ± 241		EC50 [2, 8]: 8 ± 2 nM
CCC(=O)Nc1cccc2c(Oc3ncccc3-c3ccnc(N[C@H]4CCCNC4)n3)c(C)ccc12 [compound 5]	816 ± 346		EC50 [2, 8]: 28 ± 5 nM
CCCC(=O)Nc1cccc2c(Oc3ncccc3-c3ccnc(N[C@H]4CCCNC4)n3)c(C)ccc12 [compound 6]	221 ± 52		EC50 [2, 8]: 22 ± 35 nM
Cc1ccc2c(NC(=O)OC(C)C)cccc2c1Oc1ncccc1-c1ccnc(N[C@H]2CCCNC2)n1 [compound 7, 7]	456 ± 226	36 ± 5	
Cc1ccc2c(NC(=O)OCC(C)C)cccc2c1Oc1ncccc1-c1ccnc(N[C@H]2CCCNC2)n1 [compound 8, 8]	465 ± 154	18 ± 3	
Cc1ccc2c(NC(=O)OCC(C)(C)C)cccc2c1Oc1ncccc1-c1ccnc(N[C@H]2CCCNC2)n1 [compound 9, 9]	1050 ± 372	68 ± 21	
Cc1ccc2c(NC(=O)C#CC(C)(C)C)cccc2c1Oc1ncccc1-c1ccnc(N[C@H]2CCCNC2)n1 [compound 10, 10]	380 ± 109	35 ± 5	
CCCOC(=O)Nc1cccc2c(Oc3ncccc3-c3ccnc(N[C@H]4CCCNC4)n3)c(C)ccc12 [compound 11]	234 ± 78		EC50 [2, 8]: 29 ± 6 nM
Cc1ccc2c(NC(=O)C#CCC(C)(C)C)cccc2c1Oc1ncccc1-c1ccnc(N[C@H]2CCCNC2)n1 [compound 12, 12]	645 ± 111	52 ± 12	
IRE1 LKR (Q470-L977), autophosphorylated (from UniProt O75460 470-977) (domain or fragment)			Kd [3]: 67000 nM; stoichiometry N [3]: 2
IRE1 LKR (Q470-L977), unphosphorylated (from UniProt O75460 470-977) (domain or fragment)			stoichiometry N [4]: 2
